Values quoted from earlier work in patent US4351830A (priority 1980, dated 1982).

Tests used:
[1] = literature
bacterial infections = conditions: literature

Compound: CC(=O)N[C@H]1C(O)O[C@H](CO)[C@@H](O)[C@@H]1O[C@H](C)C(=O)N[C@@H](C)C(=O)N[C@H](CCC(N)=O)C(=O)O (stereo partly drawn) [N-acetylmuramyl-L-alanyl-D-glutamine]
- adjuvant effect [1]: high adjuvant effect

Compound: CC(=O)N[C@H]1C(O)O[C@H](CO)[C@@H](O)[C@@H]1O[C@H](C)C(=O)N[C@@H](C)C(=O)N[C@H](CCC(=O)O)C(N)=O (stereo partly drawn) [N-acetylmuramyl-L-alanyl-D-isoglutamine]
- adjuvant effect [1]: high adjuvant effect

Compound: orthobenzoic acid oxide
- protective activity against bacterial infections (bacterial infections): exhibits a protective activity against bacterial infections
